{
  "source": "paper PMC4109680",
  "about": "“Identification and Preclinical Pharmacology of the γ-Secretase Modulator BMS-869780” (International Journal of Alzheimer's Disease, 2014)",
  "key": {"rat brain Aβ": {"test_system": "rat brain Aβ", "test": "Rat brain Aβ peptides after oral dose (4-plex immunoassay and Aβ1-x)", "assay_type": "in vivo", "conditions": "10 mg/kg, 5 hours", "procedure": "(§1) IC50 determinations for Aβ1-42 and Aβ1-40 in H4-APPsw cultures in 384-well format were determined using homogeneous time-resolved fluorescence immunoassays as previously described. The principle of these assays is illustrated in Figures 1(c) and 1(d). In other experiments using H4-APPsw cultures, Aβ was quantified by ELISA; for Aβ1-42 the combination of monoclonal antibodies was 26D6 and 565-HRP; for Aβ1-40 it was TSD and 26D6-HRP, and for Aβ1-x it was 4G8 and 26D6-HRP. In some experiments a novel 4-plex Aβ electrochemiluminescence immunoassay was used (Mesoscale Discovery catalog number N45ZA-1). Briefly, the 4-plex was carried out in 96-well format, with 4 separate spots of capture antibodies in each well. The 96-well plates were prepared by the manufacturer, with spots of monoclonal antibodies for Aβ1-42, Aβ1-40, and Aβ1-38, and an additional fourth spot of streptavidin in each well. Plates were initially incubated with blocking buffer (5% BSA in phosphate buffered saline, 200 μL per well) for 2 hours at ambient temperature and then with D2A6H-biotin conjugate (50 ng/mL in 1% BSA, phosphate buffered saline, 25 μL per well) for 1 hour. Plates were then rinsed with phosphate buffered saline before addition of experimental samples for determination of Aβ1-42, Aβ1-40, Aβ1-38, and Aβ1-37 levels, following the manufacturer's instructions as for the Aβ 3-plex kit (catalog number K15148E-1). Rat brain extracts for use in the 4-plex assay were made in 0.2% diethylamine, as previously described. For detection of rat Aβ peptides in the 4-plex (Figure 5), 252Q6-sulfo-tag conjugate was used, and for detection of human Aβ peptides from cell cultures 6E10-sulfo-tag conjugate was used. For Aβ in transiently transfected PS1/PS2 dKO fibroblasts, Aβ1-42 was quantified using an ELISA kit (WACO), and Aβ1-40 was quantified by ELISA as described above for H4-APPsw cultures. For triple transgenic mice (3xTg; [63]), human transgenic Aβ1-42 was assayed in brain homogenates using an ELISA kit (WACO). For the rat and mouse experiments illustrated in Figures 7 and 8, brain samples were prepared by solid phase extraction, and endogenous rat brain Aβ1-42 and Aβ1-40 were quantified by ELISA as previously described for wild type mice. For brain extracts made using solid phase extraction, calibration of Aβ was relative, based on the approximately linear response of the assay in the range tested. For brain extracts made in 0.2% diethylamine, Aβ1-42, Aβ1-40, Aβ1-38, and Aβ1-37 concentrations in brain and cell culture samples were determined by fitting the results of immunoassays against calibration curves derived from a range of dilutions of the corresponding synthetic peptides on each assay plate using a quadratic curve fit (Graphpad Prizm 5.0). Aβ1-x was calibrated in the same way against synthetic Aβ1-40 peptide. Results were expressed in units of pM, corrected for sample dilution.\nRats were given oral doses of BMS-869780, and levels of brain Aβ, βCTF, and αCTF were determined 24 hours later. For comparison, BMS-698861 was dosed in a separate experiment and samples were taken 5 hours later. […] (c) Rat brain βCTF was detected by western blotting of immunoprecipitates from samples of the same rat brains used for Aβ determinations. […] (e) and (f) quantification of western blots shown in (c) and (d), respectively, expressed relative to percent of average level of CTF in vehicle-treated rats. […]"}, "[1]": {"test_system": "rat brain APP-CTFβ and APP-CTFα", "test": "Immunoprecipitation and western blot of APP-CTFβ and APP-CTFα from rat brain", "assay_type": "in vivo", "conditions": "10 mg/kg, 5 hours", "procedure": "Rats were given oral doses of BMS-869780, and levels of brain Aβ, βCTF, and αCTF were determined 24 hours later. For comparison, BMS-698861 was dosed in a separate experiment and samples were taken 5 hours later. (a) Brain levels of Aβ1-42 (red), Aβ1-40 (green), Aβ1-38 (blue), and Aβ1-37 (purple) are shown as bars stacked upon one another. The total height of each bar therefore represents the sum of the four peptides. (b) Aβ1-42 (red—left Y axis) and Aβ1-x (grey—right Y axis). The same results for Aβ1-42 are plotted in both (a) and (b). (c) Rat brain βCTF was detected by western blotting of immunoprecipitates from samples of the same rat brains used for Aβ determinations. V, vehicle groups; results from rats dosed with 1.9, 22, 100, and 235 mg/kg of BMS-869780 and 10 mg/kg BMS-698861 (GSI) are indicated. (d) Western blots of immunoprecipitated αCTF from the same rat brain samples. (e) and (f) quantification of western blots shown in (c) and (d), respectively, expressed relative to percent of average level of CTF in vehicle-treated rats. Actual doses of BMS-869780 were determined by analysis of concentrations in left-over dosing solutions. […]"}, "[2]": {"test_system": "brain Aβ1-42, brain Aβ1-40, plasma Aβ1-40", "test": "Rat intraperitoneal dose response, brain and plasma Aβ 5 hours after dosing", "assay_type": "in vivo", "conditions": "30 mg/kg, 5 hours", "procedure": "as §1\nFigure 7 BMS-869780 dose response and evaluation of residual Aβ levels in rat brain. (a) Groups of rats received intraperitoneal (IP) injections of vehicle or BMS-869780 at doses of 100, 30, 10, 3, 1, and 0.3 mg/kg. Additional rats were dosed with GSI BMS-698861 at 30 mg/kg as a positive control for Aβ-lowering. Group sizes were seven rats for each dose of BMS-869780 and 14 rats for vehicle and GSI dose groups. Brain and plasma were harvested 5 hours after dosing. Brain Aβ1-42 (green), brain Aβ1-40 (blue), brain Aβ1-x (black), and plasma Aβ1-40 (red) were determined. Values are expressed as % relative to vehicle group mean. Whiskers represent standard error. ⊗Aβ1-x was not determined in the groups dosed at 3, 1, and 0.3 mg/kg. (b) Brain Aβ1-40 was plotted against brain Aβ1-42 for each rat dosed with BMS-869780 (black ▼) and for each rat dosed with vehicle (grey ●). Values are expressed as % relative to vehicle group mean. Whiskers represent standard error. […]"}, "Notch/Aβ1-40": {"test_system": "Notch/Aβ1-40", "set-up": "method as in PMID 24900185", "conditions": "cited from earlier work"}, "[3]": {"test_system": "Aβ1-42 in cerebrospinal fluid", "set-up": "method as in PMID 18090435", "conditions": "clinical trials, even at high doses; cited from earlier work"}, "brain Aβ1-42": {"test_system": "brain Aβ1-42", "set-up": "method as in PMID 12897211, PMID 17650315", "conditions": "rodents; cited from earlier work"}},
  "data": [
    {"smiles": "NC(=O)[C@@H](CC1CC1)N(Cc1ccc(-c2ncon2)cc1F)S(=O)(=O)c1ccc(Cl)cc1", "note": "[BMS-698861, reference compound]", "values": [
      {"measurement": "rat brain Aβ1-40, Aβ1-42, Aβ1-38, Aβ1-37 and Aβ1-x", "setting": "rat brain Aβ", "result": "decreased levels of all the peptides"},
      {"measurement": "rat brain APP-CTFβ and APP-CTFα levels", "setting": "[1]", "result": "increased several-fold"},
      {"measurement": "Aβ lowering in all Aβ assays including Aβ1-x", "setting": "[2]", "result": "robust lowering in all Aβ assays"}
    ]},
    {"smiles": "NC(=O)[C@@H](CCC(F)(F)F)N(Cc1ccc(-c2ncon2)cc1F)S(=O)(=O)c1ccc(Cl)cc1", "note": "[avagacestat]", "values": [
      {"measurement": "Notch/Aβ1-40 IC50 ratio", "setting": "Notch/Aβ1-40", "result": 193}
    ]},
    {"smiles": "CC(C(=O)O)c1ccc(-c2ccccc2)c(F)c1", "note": "(stereo not drawn) [flurbiprofen]", "values": [
      {"measurement": "effect on Aβ1-42 in cerebrospinal fluid", "setting": "[3]", "result": "no effect on Aβ1-42 in cerebrospinal fluid"},
      {"measurement": "effect on brain Aβ1-42", "setting": "brain Aβ1-42", "result": "lower brain Aβ1-42 in rodents"}
    ]}
  ]
}
